Measurements reported in patent publication US8436039B2, “Inhibitors of the ATB(0,+) transporter and uses thereof” (Georgia Health Sciences University Research Institute, Inc., priority 2008, dated 2013).

Columns and labels:
mouse ATB^0,+ = target: T1, mouse ATB^0,+ (Mus musculus, UniProt Q9JMA9); experiment: Substrate-induced inward currents in X. laevis oocytes expressing mouse ATB^0,+ (two-microelectrode voltage clamp); format: cell-based; conditions: for inward currents induced in ATB^0,+-expressing oocytes: 2.5 mM; for inward currents induced in ATB^0,+-expressing oocytes / Michaelis constant (K0.5) of substrate-induced currents: voltage clamp, NaCl; for Michaelis constant (K0.5) of substrate-induced currents: saturation kinetics
T1 sequence (Q9JMA9 1-638): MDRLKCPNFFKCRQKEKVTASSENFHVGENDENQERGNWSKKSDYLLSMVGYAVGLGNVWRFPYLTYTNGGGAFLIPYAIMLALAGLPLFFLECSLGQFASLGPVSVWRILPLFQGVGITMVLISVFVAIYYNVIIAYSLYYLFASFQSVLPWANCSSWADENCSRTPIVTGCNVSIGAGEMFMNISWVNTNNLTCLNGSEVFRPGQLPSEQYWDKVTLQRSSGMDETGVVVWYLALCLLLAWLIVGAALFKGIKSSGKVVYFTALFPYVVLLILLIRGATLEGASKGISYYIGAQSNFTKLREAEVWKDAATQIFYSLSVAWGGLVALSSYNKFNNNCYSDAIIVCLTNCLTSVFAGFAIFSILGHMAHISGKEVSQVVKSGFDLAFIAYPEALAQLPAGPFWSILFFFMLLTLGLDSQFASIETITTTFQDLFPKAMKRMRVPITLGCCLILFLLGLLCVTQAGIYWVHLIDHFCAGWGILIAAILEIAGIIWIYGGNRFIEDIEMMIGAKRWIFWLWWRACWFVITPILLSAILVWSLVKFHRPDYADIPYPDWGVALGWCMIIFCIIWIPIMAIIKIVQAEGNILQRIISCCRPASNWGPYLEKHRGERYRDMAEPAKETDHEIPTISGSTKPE
Procedure: Capped cRNA from the cloned mouse or human ATB^0,+ cDNA was synthesized using the mMESSAGE mMACHTNE kit (Ambion, Austin, Tex., U.S.A.). Mature oocytes (stage IV or V) from X. laevis were injected with 50 ng of cRNA. Uninjected oocytes served as controls. The oocytes were used for electrophysiological studies 3-6 days after cRNA injection. Electrophysiological studies were performed by the two-microelectrode voltage-clamp method (Nakanishi et al., 2001, J. Physiol. 532, 297-304). Oocytes were superfused with an NaCl-containing buffer (100 mM NaCl, 2 mM KCl, 1 mM MgCl2, 1 mM CaCl2, 3 mM Hepes, 3 mM Mes and 3 mM Tris, pH 7.5), followed by the same buffer containing tryptophan derivatives. The membrane potential was clamped at −50 mV. The differences between the steady-state currents measured in the presence and absence of substrates were considered as the substrate-induced currents. In the analysis of the saturation kinetics of substrate-induced currents, the kinetic parameter K0.5 (i.e. substrate concentration necessary for induction of half-maximal current) was calculated by fitting the values of the substrate-induced currents to the Michaelis-Menten equation. The Na^+ and Cl^− activation kinetics of substrate-induced currents were analysed by measuring the substrate-specific currents in the presence of increasing concentrations of Na^+ (concentration of Cl^− kept constant at 100 mM) or in the presence of increasing concentrations of Cl^− (concentration of Na^+ kept constant at 100 mM). In these experiments, the composition of the superfusion buffer was modified to contain 2 mM potassium gluconate, 1 mM MgSO4 and 1 mM calcium gluconate in place of KCl, MgCl2 and CaCl2 respectively. The data from these experiments were analysed by the Hill equation to determine the Hill coefficient (h; number of Na^+ and Cl^− ions involved in the activation process). The kinetic parameters were determined by using the commercially available computer program Sigma Plot, version 6.0 (SPSS, Chicago, Ill., U.S.A.). Uninjected oocytes were used to determine the currents induced by tryptophan derivatives due to entry via transporters that may be constitutively expressed in the oocytes. At a concentration of 2.5 mM, the currents induced by these compounds were in the range of 0-3 nA in uninjected oocytes. These currents were less than 2% of the corresponding currents induced in ATB^0,+ cRNA-injected oocytes. Therefore the endogenous currents associated with the constitutively expressed transporters were not considered in the analysis of kinetic parameters of ATB^0,+ transport activity.
The above studies with the mammalian cell expression system have focused on the interaction of 1-methyltryptophan and other tryptophan derivatives with ATB^0,+ by examining the effects of these compounds on the transporter-mediated glycine uptake. These studies have shown convincingly that 1-methyltryptophan interacts with ATB^0,+, with the L-isomer having much higher affinity for the transporter than the D-isomer. However, these studies have not shown whether or not 1-methyltryptophan is actually a transportable substrate for ATB^0,+. It is possible that 1-methyltryptophan inhibits ATB^0,+-mediated glycine uptake simply by blocking the interaction of glycine with the substrate-binding site of the transporter, rather than by actually competing with glycine for the transport process. […] We wanted to know whether 1-methyltryptophan can actually be transported by ATB^0,+. For this, we used the X. laevis oocyte expression system. Since the transport process mediated by ATB^0,+ is electrogenic, exposure of ATB^0,+-expressing oocytes to transportable substrates will induce an inward current in an Na^+- and Cl^−-dependent manner. Exposure of the same oocytes to blockers will interfere with currents induced by transportable substrates, but will not induce currents by themselves. […]

human LAT1/4F2hc = human LAT1/4F2hc (Homo sapiens, UniProt Q01650); experiment: Inhibition of LAT1 transport function: L-valine uptake in HRPE cells co-expressing human LAT1 and human 4F2hc; format: cell-based; conditions: for effect on cDNA-induced valine uptake: 1 mM, L-[14C]valine 0.75 μM, 5 min
[1] = 1 mM substrate, Cl^- fixed at 100 mM
[2] = 1 mM substrate, Na^+ fixed at 100 mM

Chain of human LAT1/4F2hc (Q01650 whole entry): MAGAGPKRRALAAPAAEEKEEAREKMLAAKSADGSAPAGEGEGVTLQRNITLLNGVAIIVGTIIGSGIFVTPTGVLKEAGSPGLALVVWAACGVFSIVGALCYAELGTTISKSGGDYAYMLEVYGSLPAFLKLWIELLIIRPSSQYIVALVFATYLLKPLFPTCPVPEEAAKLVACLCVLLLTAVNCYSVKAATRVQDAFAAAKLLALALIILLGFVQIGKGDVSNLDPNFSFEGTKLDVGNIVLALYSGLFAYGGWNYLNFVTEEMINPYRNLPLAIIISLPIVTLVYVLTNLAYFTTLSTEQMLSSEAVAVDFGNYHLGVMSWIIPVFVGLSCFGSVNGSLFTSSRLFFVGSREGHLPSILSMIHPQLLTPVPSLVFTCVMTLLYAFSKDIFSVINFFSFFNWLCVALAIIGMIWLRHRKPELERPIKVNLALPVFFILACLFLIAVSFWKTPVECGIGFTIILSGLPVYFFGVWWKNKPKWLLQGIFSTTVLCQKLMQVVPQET
Chain of human LAT1/4F2hc (P08195 102-630 partner): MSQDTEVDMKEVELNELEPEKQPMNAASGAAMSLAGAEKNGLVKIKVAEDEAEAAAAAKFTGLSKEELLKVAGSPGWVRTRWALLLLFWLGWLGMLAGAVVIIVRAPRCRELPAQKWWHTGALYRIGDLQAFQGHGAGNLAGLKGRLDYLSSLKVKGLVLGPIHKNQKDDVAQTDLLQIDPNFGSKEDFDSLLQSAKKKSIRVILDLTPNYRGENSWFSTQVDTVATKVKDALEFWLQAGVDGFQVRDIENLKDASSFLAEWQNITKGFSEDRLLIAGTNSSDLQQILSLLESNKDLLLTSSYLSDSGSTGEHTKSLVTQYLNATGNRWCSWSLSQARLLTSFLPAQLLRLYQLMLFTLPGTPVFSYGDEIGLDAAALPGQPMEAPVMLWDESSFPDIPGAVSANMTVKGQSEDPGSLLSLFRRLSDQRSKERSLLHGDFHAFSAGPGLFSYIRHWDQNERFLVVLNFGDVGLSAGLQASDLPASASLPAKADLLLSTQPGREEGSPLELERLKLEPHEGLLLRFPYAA

| SMILES | inward currents induced in ATB^0,+-expressing oocytes (mouse ATB^0,+) | effect on cDNA-induced valine uptake (human LAT1/4F2hc) | type of inhibition of LAT1 (human LAT1/4F2hc) | Michaelis constant (K0.5) of substrate-induced currents (mouse ATB^0,+) | Hill coefficient (h), Na^+-activation kinetics of induced currents (mouse ATB^0,+; [1]) | Michaelis constant (K0.5) for Na^+ (mouse ATB^0,+; [1]) | Hill coefficient, Cl^- -activation kinetics of induced currents (mouse ATB^0,+; [2]) | Michaelis constant for Cl^- (mouse ATB^0,+; [2]) |
| --- | --- | --- | --- | --- | --- | --- | --- | --- |
| Cn1cc(CC(N)C(=O)O)c2ccccc21 (racemic) [1-methyl-DL-tryptophan] | induced marked currents | abolished completely | – | – | – | – | – | – |
| CC(N)(Cc1c[nH]c2ccccc12)C(=O)O (racemic) [α-methyl-DL-tryptophan] | failed to induce currents | abolished completely | competitive inhibitor | – | – | – | – | – |
| Cn1cc(C[C@@H](N)C(=O)O)c2ccccc21 [1-methyl-D-tryptophan] | – | – | – | 462 ± 78 µM | – | – | – | – |
| Cn1cc(C[C@H](N)C(=O)O)c2ccccc21 [1-methyl-L-tryptophan] | – | abolished completely | – | 93 ± 16 µM | 1.9±0.2 | 27 ± 2 mM | 1.2±0.2 | 2.1 ± 0.3 mM |
